Laboratory results reported in patent US7030096B1, “Method of enhancing relaxation of penile smooth muscle by introduction of DNA encoding maxi-K potassium channel protein” (Albert Einstein College of Medicine of Yeshiva University, priority 1997, dated 2006).
Read-outs that look alike come from different tables or passages of the source. Where no end group is shown, it is not given here.

Assays:
KATP channel = conditions: Table 4; cited from earlier work
corporal smooth muscle = conditions: cited from earlier work
maxi-K channel [1] = molecular target: T1, maxi-K channel (Homo sapiens, UniProt Q12791); type: cell-based
T1 sequence (Q12791 whole entry): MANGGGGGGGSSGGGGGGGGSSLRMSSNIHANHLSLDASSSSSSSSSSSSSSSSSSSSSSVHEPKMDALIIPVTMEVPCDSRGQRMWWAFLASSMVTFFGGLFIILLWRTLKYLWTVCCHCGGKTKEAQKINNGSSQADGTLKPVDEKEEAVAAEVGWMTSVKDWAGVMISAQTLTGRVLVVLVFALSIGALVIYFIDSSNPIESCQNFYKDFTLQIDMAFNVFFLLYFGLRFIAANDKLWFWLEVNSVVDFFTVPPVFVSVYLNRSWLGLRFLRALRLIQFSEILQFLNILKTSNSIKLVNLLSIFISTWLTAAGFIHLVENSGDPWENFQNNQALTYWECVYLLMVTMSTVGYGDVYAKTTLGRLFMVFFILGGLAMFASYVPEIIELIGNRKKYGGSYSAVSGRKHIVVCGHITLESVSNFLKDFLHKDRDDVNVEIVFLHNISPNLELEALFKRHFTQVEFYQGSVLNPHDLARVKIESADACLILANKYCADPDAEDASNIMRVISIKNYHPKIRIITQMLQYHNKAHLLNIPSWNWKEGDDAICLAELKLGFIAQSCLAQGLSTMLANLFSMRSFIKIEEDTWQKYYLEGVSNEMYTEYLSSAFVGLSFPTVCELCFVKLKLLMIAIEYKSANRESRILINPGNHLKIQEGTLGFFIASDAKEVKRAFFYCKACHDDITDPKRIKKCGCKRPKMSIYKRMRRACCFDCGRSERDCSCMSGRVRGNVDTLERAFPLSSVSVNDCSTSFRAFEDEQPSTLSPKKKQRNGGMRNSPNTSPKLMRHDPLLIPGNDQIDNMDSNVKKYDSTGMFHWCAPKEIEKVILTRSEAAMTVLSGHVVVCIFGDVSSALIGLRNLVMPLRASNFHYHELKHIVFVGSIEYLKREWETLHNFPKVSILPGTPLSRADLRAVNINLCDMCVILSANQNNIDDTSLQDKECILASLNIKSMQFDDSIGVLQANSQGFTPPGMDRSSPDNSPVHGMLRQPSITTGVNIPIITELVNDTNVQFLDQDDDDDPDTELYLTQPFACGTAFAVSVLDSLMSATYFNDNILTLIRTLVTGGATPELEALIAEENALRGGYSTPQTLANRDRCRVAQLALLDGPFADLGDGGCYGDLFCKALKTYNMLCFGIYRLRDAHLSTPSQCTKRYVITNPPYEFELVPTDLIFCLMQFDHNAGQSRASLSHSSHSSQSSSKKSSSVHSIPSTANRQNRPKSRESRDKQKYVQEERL

L-type Ca^2+ channel = conditions: cited from earlier work
[2] = tested on: isolated human corporal tissue strips; type: cell-based
[3] = tested on: isolated human corporal tissue strips; conditions: cited from earlier work
KCa channel = KCa channel (Homo sapiens, UniProt Q12791); conditions: Table 4; cited from earlier work
Sequence of KCa channel (Q12791 whole entry): as above

maxi-K channel [4] = molecular target: T1, maxi-K channel; conditions: all four recording modes; cited from earlier work
[5] = tested on: cultured human corporal smooth muscle cells; conditions: preincubation with 500 nM PGE1, cited from earlier work
[6] = tested on: cultured human corporal smooth muscle cells; assay: Resting and ET-1-induced intracellular calcium in fura-2-loaded cultured cells; type: cell-based; conditions: transfection with hSlo cDNA or preincubation with PGE1 (500 nM)
Experimental: Urol., 155:[…], 1996). This decrease is indistinguishable from the decrease seen in the absence of extracellular Ca^2+ (in 2 mM EGTA), or when cells are preincubated with either nifedipine (Zhao and Christ, J. Urol., 154:1571-79, 1995) or verapamil, both of which are blockers of the L-type voltage-dependent calcium channel. [table]

[7] = tested on: precontracted corporal tissue strips; conditions: from both animals and humans; cited from earlier work
monkeys and humans = conditions: cited from earlier work

For `COc1ccc(Cl)cc1C(=O)NCCc1ccc(S(=O)(=O)NC(=O)NC2CCCCC2)cc1` [Glibenclamide, glibenclamide], the “Channel Type Affected: KATP” value (KATP channel) is given as “KATP decreases” and the “Effect on Smooth Muscle Tone” value (corporal smooth muscle; Table 4) is given as “increased tone”.
For `[Cl-].[K+]` [KCl], the “Channel Type Affected: KATP” value (KATP channel) is listed as “KATP increases” and the “Effect on Smooth Muscle Tone” value (corporal smooth muscle; Table 4) is listed as “modulates increase”.
In the case of `O=[N+]([O-])OCC(CO[N+](=O)[O-])O[N+](=O)[O-]` [NTG, nitroglycerine], the Channel activity increased (maxi-K channel [1]) is given as “YES”, the “maxi-K channel activity (attached patch recording mode)” value (maxi-K channel [1]) is given as “increase in maxi-K channel activity” and the “Effect on Smooth Muscle Tone” value (corporal smooth muscle) is given as “decreased tone”. For the same molecule, the “Channel Type Affected: L-type Ca^2+” value (L-type Ca^2+ channel) was “decreases”, the “percent relaxation response elicited by 100 nM nitroglycerine” value [2] was 20.3%±3.2 and the “expected percent relaxation response elicited by 100 nM nitroglycerine” value [3] was 50.1%.
In the case of `CNC[C@H](O)c1cccc(O)c1` [PE, phenylephrine], the “Effect on Smooth Muscle Tone” value (corporal smooth muscle; Table 4) is listed as “modulates increase” and the “Channel Type Affected: KCa” value (KCa channel) is listed as “KCa increases”.
For `CCCCC[C@H](O)/C=C/[C@H]1[C@H](O)CC(=O)[C@@H]1CCCCCCC(=O)O` [PGE1, prostaglandin E1], the Channel activity increased (maxi-K channel [1]; 100 μM NTG or 30 nM–30 μM PGE1) is listed as “YES”, the “Effect on Smooth Muscle Tone” value (corporal smooth muscle; Table 4) is listed as “decreased tone” and the “activity of the maxi-K channel” value (maxi-K channel [4]) is listed as “concentration-dependent increase”. The “decrease in peak amplitude of the ET-1-induced (50 nM) calcium transient” value [5] was “≈ 40%”, the “peak amplitude of the ET-1-induced (50 nM) calcium transient above baseline” value ([5]; control value 161.5±19.5 nM) was 102.6 ± 9.5 nM and the “Channel Type Affected: KCa” value (KCa channel) was “KCa increases”. For the same molecule, the “ET-1-induced calcium response decreased” value [6] was “YES”.
In the case of `CC[N+](CC)(CC)CC` [TEA, tetraethylammonium], the “Effect on Smooth Muscle Tone” value (corporal smooth muscle) is given as “increased tone”, the “Channel Type Affected: KCa” value (KCa channel) is given as “KCa decreases” and the PE-induced contraction increased [2] is given as “YES”. The Relaxation response decreased [2] was “YES”, the “Resting corporal smooth muscle tone increased” value [2] was “YES” and the “effect on NTG-induced relaxation response (100 nM)” value [2] was “significant attenuation”.
In the case of `CC1(C)Oc2ccc(C#N)cc2C(N2CCCC2=O)C1O` (stereo not shown) [cromakalim], the “effect on precontracted corporal tissue strips” value [7] is listed as “relax” and the “effect when injected intracavernosally” value (monkeys and humans) is listed as “elicit an erection”.
For `CC1(C)Oc2ccc(C#N)cc2[C@@H](N2CCCC2=O)[C@@H]1O` [lemakalim], the “effect on precontracted corporal tissue strips” value [7] is given as “relax” and the “effect when injected intracavernosally” value (monkeys and humans) is given as “elicit an erection”.
In the case of `O=C(NCCO[N+](=O)[O-])c1cccnc1` [nicorandil], the “effect on precontracted corporal tissue strips” value [7] is listed as “relax” and the “effect when injected intracavernosally” value (monkeys and humans) is listed as “elicit an erection”.
In the case of `CC(N/C(=N\C#N)Nc1ccncc1)C(C)(C)C` (stereo not shown) [pinacidil], the “effect on precontracted corporal tissue strips” value [7] is given as “relax”, the “Channel Type Affected: KATP” value (KATP channel) is given as “KATP increases” and the “Effect on Smooth Muscle Tone” value (corporal smooth muscle; Table 4) is given as “decreased tone”. The “effect when injected intracavernosally” value (monkeys and humans) was “elicit an erection”.
For “endothelin-1 (CSCSSLMDKECVYFCHLDIIW; ends and bridges not checked; cysteine pairing not given here; UniProt P05305 53-73, looked up) [ET-1]”, the “Effect on Smooth Muscle Tone” value (corporal smooth muscle; Table 4) is given as “increased tone” and the “Channel Type Affected: L-type Ca^2+” value (L-type Ca^2+ channel; Table 4) is given as “increases”.
